This is an account of results in paper PMC4286029 (Inflammation Research, 2014).

By ED50 is commonly meant the dose that gives a 50% effect, or the effect in half of the subjects. Read a low ED50 as greater potency.

Assay [1] has as its system rat collagen-induced arthritis model. Details: method as in PMID 15683847. Particulars: cited from earlier work.
In assay [2] the test system is kinases in KinaseProfiler. Kind of assay: KinaseProfiler panel as a whole (selectivity for other kinases). It counts as biochemical. Particulars: concentration of 1,000 nM. How it is done: […]; The selectivity of JTE-052 for other kinases was assessed using KinaseProfiler™ (Millipore Co. Ltd.). […].
Assay [3] has as its system IL-2-induced IFN-γ production. Kind of assay: IL-2-induced IFN-γ production in mice. It counts as in vivo, DBA/1J mice. Particulars: Mus musculus, po. How it is done: DBA/1J mice were dosed once via oral gavage with compounds. At 1 or 6 h after compound administration, the mice were injected intraperitoneally with 2 μg of recombinant mouse IL-2 and 10 μg of biotinylated anti-mouse IFN-γ capture antibody. After 6 h, the mice were euthanized, and blood was collected. Serum IFN-γ was quantified using a Mouse IFN-γ In Vivo Capture Assay Set (BD Biosciences).
After 1 or 6 h, they were injected with IL-2 and anti-mouse IFN-γ capture antibody. At 6 h after the injection, blood samples were collected, and the serum IFN-γ levels were measured.

The subject of assay [4] is rat collagen-induced arthritis model. Kind of assay: Collagen-induced arthritis in rats. It counts as in vivo, Lewis rats. Particulars: MTX 0.3 mg/kg; for effect on paw swelling / arthritis symptoms, therapeutic administration: oral once daily from day 15, JTE-052 0.1, 1, 10 mg/kg. How it is done: CIA was induced in rats as previously described with some modifications. Briefly, type II collagen (Collagen Research Center, Saitama, Japan) was dissolved in 0.01 M acetic acid at 2 mg/mL, and the solution was emulsified in an equal volume of Freund’s incomplete adjuvant (Difco Laboratories, Detroit, MI). Lewis rats were immunized with 1 mL of the emulsion (1 mg of type II collagen) via ten intradermal injections on the back under anesthesia. The rats were then challenged with 0.2 mL of the emulsion injected into the base of the tail on day 8 under anesthesia. The test drugs were given orally once daily from day 1 to day 21 (preventive administration) or from day 15 to day 28 (therapeutic administration). After arthritis induction, the hind paw volume was measured by a water displacement method using a plethysmometer (Muromachi Kikai Co. Ltd., Tokyo, Japan). On day 22 or day 29, the rats were euthanized, and their hind paws were excised and X-rayed or processed for histological evaluation. Radiographs of the right hindlimbs were taken using a microfocal cone-beam X-ray CT scanner (MCT-CB100MF; Hitachi Medical Corporation, Tokyo, Japan). The severity of bone destruction was scored on a 3-point scale ranging from 0 to 2 for the following five joints: second metatarsal—second intertarsal joint, third metatarsal—third intertarsal joint, talus—central intertarsal joint, calcaneus—fourth intertarsal joint, and astragalo—tibial joint. For histological analysis, the formalin-fixed left hindlimbs were sectioned and stained with hematoxylin and eosin. The histology of the tarsal joints was evaluated by assessing the following parameters defined in the preliminary examination: inflammatory cell infiltration, synovial cell hyperplasia, cartilage destruction, and bone destruction. The severity of each histological change was scored on a 5-point scale ranging from 0 to 4. (Score 0: normal; Score 1: minimal, solitary (and very small) lesion; Score 2: slight, focal (and small) lesion; Score 3: moderate, scattered lesion; and Score 4: severe, extensive lesion).
. The hind paw volume (a) and body weight (b) were measured periodically. Images of hematoxylin and eosin staining (c) and radiographs of hindlimbs (e) are shown. Histological change (d) and radiographical change (f) were scored. The results are expressed as mean ± SD. ^# p < 0.05, ^## p < 0.01, versus vehicle by the Steel test
. The hind paw volume (a) and body weight (b) were measured periodically. Images of hematoxylin and eosin staining (c) and radiographs of hindlimbs (e) are shown. Histological change (d) and radiographical change (f) were scored. The results are expressed as mean ± SD. *p < 0.05, **p < 0.01, versus vehicle by Dunnett’s test. ^# p < 0.05, ^## p < 0.01, versus vehicle by the Steel test

The subject of assay [5] is IL-2 signaling (JAK1/JAK3), Stat5 phosphorylation in hPBMCs. Kind of assay: cells. Particulars: Homo sapiens, 0.25 h, read-out: IC50, IL-2 cytokine signaling (JAK1/JAK3). How it is done:
(§1) hPBMCs (3 × 10^6 cells/tube) were incubated with a test compound for 30 min at 37 °C, and then treated with IL-2 (100 ng/mL), IL-6 (100 ng/mL), IL-23 (100 ng/mL), IFN-α (100 ng/mL), or GM-CSF (1 ng/mL) for an additional 15 min. To terminate the stimulation, the cells were fixed with Fixation Buffer (BD Biosciences) for 10 min at 37 °C. The fixed cells were incubated with Perm Buffer II (BD Biosciences) for 30 min on ice and then incubated with fluorochrome-labeled anti-CD3, anti-CD4, or anti-phospho-Stat antibodies for 30 min at room temperature. The cytokine-induced Stat phosphorylation was analyzed and quantified using a Cytomics FC500 (Beckman Coulter Inc., Brea, CA). In the case of IL-23 stimulation, hPBMCs were precultured with 10 μg/mL phytohemagglutinin (PHA)-M (Sigma-Aldrich Co.) for 3 days to enhance their response to IL-23.
(§2) The phosphorylation levels of Stat5 (IL-2 and GM-CSF), Stat3 (IL-6 and IL-23), or Stat1 (IFN-α) in CD3^+CD4^+ cells (IL-2, IL-23, and IFN-α) or CD3^-CD4^+ cells (IL-6 and GM-CSF) were analyzed by flow cytometry. Data are presented as percentages of mean fluorescence intensity relative to vehicle (100 %) and non-stimulated control cells (0 %). Values are mean ± SEM. Three independent experiments were performed

Assay [6] deals with IFN-α signaling (JAK1/Tyk2), Stat1 phosphorylation in hPBMCs. Kind of assay: cells. Particulars: Homo sapiens, 0.25 h, read-out: IC50, IFN-α cytokine signaling (JAK1/Tyk2). How it is done: as §1, §2

Structures are written as SMILES. Counter-ions that a name gives are not always drawn.

For `C=CC[C@@H]1/C=C(\C)C[C@H](C)C[C@H](OC)[C@H]2O[C@@](O)(C(=O)C(=O)N3CCCC[C@H]3C(=O)O[C@H](/C(C)=C/[C@@H]3CC[C@@H](O)[C@H](OC)C3)[C@H](C)[C@@H](O)CC1=O)[C@H](C)C[C@@H]2OC` [tacrolimus], the “effect in rat collagen-induced arthritis model, administration after the onset of arthritis” value in assay [1] is on record as “had no inhibitory effects”.
Regarding `C[C@@H]1CCN(C(=O)CC#N)C[C@@H]1N(C)c1ncnc2[nH]ccc12` [Tofacitinib, tofacitinib citrate, reference compound], the “inhibition of other kinases in KinaseProfiler” value in assay [2] is recorded as “did not inhibit any of the kinases”. In addition, the figures for the ED50 in assay [3] (dosed 1 h prior to IL-2 injection) and in assay [3] (dosed 6 h prior to IL-2 injection) were 1.1 mg/kg and 13 mg/kg, respectively.
For the compound `CN(Cc1cnc2nc(N)nc(N)c2n1)c1ccc(C(=O)N[C@@H](CCC(=O)O)C(=O)O)cc1` [MTX, Methotrexate hydrate], the “effect on hind paw swelling and joint inflammation, preventive administration” value in assay [4] (oral once daily from day 1, JTE-052 0.1, 1, 10 mg/kg) is reported as “significantly inhibited these symptoms”. In addition, the entries for the “effect on paw swelling / arthritis symptoms, therapeutic administration” value in assay [4] and in assay [4] (listed as methotrexate) were “did not attenuate all of these symptoms” and “ineffective”, respectively.
In the case of `N#CC[C@H](C1CCCC1)n1cc(-c2ncnc3[nH]ccc23)cn1` [Ruxolitinib, Ruxolitinib phosphate, reference compound], the IC50 was 13 nM in assay [5] and 1.1 nM in assay [6].
